The values below are quoted from earlier work in US20240360061A1, “Synthetic Cannabinoid Compounds, Pharmaceutical Compositions, and Treatment Methods” (Miralogx LLC, priority 2022, published 2024).

For data set [1] the following is noted: 2.5 to 5 mg THC, three patients.
For data set [2] the following is noted: oral THC 15 mg; compared with salbutamol, isoprenaline.
The conditions of data set [3]: several clinical studies.
For data set [4] the following is noted: Type-2 diabetes; cited from J. Cannabis Research (2020) 2:6.

In the case of `CCCCCc1cc(O)c2c(c1)OC(C)(C)[C@@H]1CCC(C)=C[C@@H]21` [THC, tetrahydrocannabinol], the “effect on pruritus due to liver diseases” value in data set [1] is listed as “effective”. Besides, in data set [2], the “anti-asthmatic (bronchodilator) effect” value is reported as “approximately correspond to those obtained with therapeutic doses of common bronchodilator drugs”. Also, in data set [3], the “mood in reactive depression” value is recorded as “improvement of mood”.
Turning to `CCCc1cc(O)c2c(c1)OC(C)(C)[C@@H]1CCC(C)=C[C@@H]21` [THCV, Δ9-Tetrahydrocannabivarin], in data set [4], the “Homeostasis Model Assessment (HOMA2) of pancreatic β-cell function” value was “improve” and the fasting plasma glucose entry was “significantly decrease”.
